# Laboratory results as given in PMC9354408, “How to Achieve Sufficient Endogenous Insulin Suppression in Euglycemic Clamps Assessing the Pharmacokinetics and Pharmacodynamics of Long-Acting Insulin Preparations Employing Healthy Volunteers” (Frontiers in Pharmacology, 2022).
# What was measured:
# Assay type in all cases: in vivo, healthy Chinese men and women
# [1] = test system: endogenous insulin secretion; experiment: Serum C-peptide during clamp (endogenous insulin suppression, direct chemiluminescence); conditions: arithmetic mean ± SD; for Mean postdose C-peptide: after 0.5 IU/kg s.c. IGlar; for C-peptide reduction: postdose versus baseline
# Method: (§1) All enrolled subjects underwent a euglycemic glucose clamp lasting for up to 24 h after a 0.5-IU/kg IGlar injection. All the participants were restrained from strenuous exercise, smoking, alcohol, or caffeinated drinks. Since a C-peptide suppression of more than 50% is widely recognized as sufficient endogenous insulin suppression, the subjects fell into two groups based on the ratio of C-peptide reduction from baseline (group A: C-peptide reduction <50%; group B: C-peptide reduction ≥50%). The data were collected from a clinical trial (NCT03555305) ([Liu et al., 2021]), which was conducted to evaluate the pharmacokinetic and pharmacodynamic equivalence of an IGlar biosimilar (LY2963016) manufactured by Eli Lilly to Lantus manufactured by Sanofi.
# (§2) A 6-ml blood sample for analysis of C-peptide and total insulin levels were collected before drug administration (0.5 and 0 h before dosing) and every 0.5–3 h throughout the clamp as described before ([Liu et al., 2021]). The whole blood sample was drawn into a serum tube and gently mixed by inversion (>5 times). Then the sample was required to clot for 30–60 min at room temperature. The tube was centrifuged at 1,500–2000g for 15–20 min to separate serum. The serum was transferred without red blood cells contained, and frozen at -70 °C until shipment for analysis. The concentration of total insulin was determined by a validated radioimmunoassay method ([Kuerzel et al., 2003]; [Shen et al., 2019]) with a quantification range of 50–2000 pmol/L at WuXi AppTec Co., Ltd. in Shanghai, China. The exogenous IGlar level was calculated by subtracting the endogenous insulin based on C-peptide using Owens’s method ([Owens, 1986]). The C-peptide concentration was analyzed by a direct chemiluminescent technology in Covance Laboratory (Shanghai, China) with a quantification range of 0.07–352 ng/ml.
# (§3) If a measured value of total insulin or C-peptide was below the lower limit of quantification, it would be included in statistics as half of the limit. A calculated value of IGlar below zero after C-peptide correction would be excluded from the PK statistics. The primary PK parameters included the area under the curve (AUC) of IGlar from time 0–24 h (AUCIGlar, 0–24 h) and the maximum IGlar (IGlarmax) corrected by C-peptide. Other PK parameters included AUC of IGlar from 0 to 12 h (AUCIGlar, 0–12 h) and time to IGlarmax (tIGlarmax).
# [2] = Serum total insulin during clamp (radioimmunoassay); design: AUCTotal insulin,0-12h / AUCTotal insulin,0-24h: unit not given here; conditions: 0.5 IU/kg s.c., arithmetic mean ± SD; for AUCTotal insulin,0-12h / AUCTotal insulin,0-24h: serum, before C-peptide correction
# Method: as §1, §2, §3
# [3] = Pharmacokinetics of exogenous IGlar (total insulin radioimmunoassay, C-peptide corrected by Owens's method); conditions: 0.5 IU/kg s.c., arithmetic mean ± SD; for AUCIGlar,0-12h / AUCIGlar,0-24h / IGlarmax: serum, C-peptide corrected
# Method: as §1, §2, §3
# [4] = Manual euglycemic glucose clamp, glucose infusion rate (pharmacodynamics); conditions: for AUCGIR,0-24h / GIRmax / tGIRmax: 0.5 IU/kg s.c., arithmetic mean ± SD; for AUCGIR,0-12h: single 0.5 IU/kg s.c. IGlar (LY2963016 or Lantus), clamp up to 24 h, target BG 0.28 mmol/L below baseline, median (interquartile range); for GIRmax after correction / AUCGIR, 0–24 h after correction: corrected using the corresponding exogenous IGlar parameter as a covariant; for AUCGIR, 0–24 h after correction: first mention
# Method: as §1
# At the dosing visit, an overnight fast of at least 8 h must be guaranteed prior to IGlar administration. Two catheters were placed into the antecubital vein and the hand vein, respectively, for 20% dextrose infusing and blood sampling correspondingly. The baseline of BG was defined as the mean of three BG measurements at 30, 20, and 10 min prior to the IGlar administration. A single dose (0.5 IU/kg) of Lantus or LY2963016 was subcutaneously injected into a lifted abdominal skinfold. A 0.1-ml blood sample was collected from the hand vein which was continuously heated in a warm blanket (55 ± 5 °C) at an interval of 10–20 min for the analysis of BG levels. A variable GIR was frequently adjusted and timely recorded to maintain the BG around 0.28 mmol/L below the baseline and represent the pharmacodynamic activity of IGlar, respectively.
# The BG levels were immediately determined in whole blood at the bedside by a glucose analyzer (Biosen C_line, EKF Diagnostics, Barleben, Germany) with the glucose oxidase method. The measuring range of this method was 0.5–50 mmol/L with a high precision of 1.5%. The clamp would end if no exogenous glucose infusion was required for at least 0.5 h.
# Individual GIR values were smoothed by a locally weighted scatterplot smoothing technique. The maximum GIR (GIRmax) and the total amount of glucose infused throughout the clamp (AUCGIR, 0–24 h) were defined as primary PD parameters. Secondary PD parameters included time to GIRmax (tGIRmax) and AUC of GIR from 0 to 12 h (AUCGIR, 0–12 h).
# [5] = group A (C-peptide reduction <50%), N = 52
# [6] = group B (C-peptide reduction >=50%), N = 26
substance,measurement,setting,value
insulin glargine [IGlar],Mean postdose C-peptide,[1]; [5],201 ± 74 pmol/L
same,C-peptide reduction,"[1]; group A (defined by C-peptide reduction <50%), N = 52",39.5 ± 6.7%
same,Mean postdose C-peptide,[1]; [6],134 ± 50 pmol/L
same,C-peptide reduction,"[1]; group B (defined by C-peptide reduction >=50%), N = 26",57.4 ± 5.5%
same,Maximum total insulin,[2]; [5],151.8 ± 42.0 pmol/L
same,Time of maximum total insulin,[2]; [5],10.9 ± 5.55 h
same,"AUCTotal insulin,0-12h",[2]; [5],"1,444 ± 398"
same,"AUCTotal insulin,0-24h",[2]; [5],"2,853 ± 713"
same,Maximum total insulin,[2]; [6],162.1 ± 41.9 pmol/L
same,Time of maximum total insulin,[2]; [6],10.8 ± 3.77 h
same,"AUCTotal insulin,0-12h",[2]; [6],"1,510 ± 368"
same,"AUCTotal insulin,0-24h",[2]; [6],"2,958 ± 626"
same,tIGlarmax,[3]; [5],11.7 ± 3.97 h
same,"AUCIGlar,0-12h",[3]; [5],"1,099 ± 342 pmol/L×h"
same,"AUCIGlar,0-24h",[3]; [5],"2,194 ± 597 pmol/L×h"
same,IGlarmax,[3]; [5],122.7 ± 37.7 pmol/L
same,tIGlarmax,[3]; [6],11.6 ± 2.66 h
same,"AUCIGlar,0-12h",[3]; [6],"1,295 ± 360 pmol/L×h"
same,"AUCIGlar,0-24h",[3]; [6],"2,534 ± 597 pmol/L×h"
same,IGlarmax,[3]; [6],147.7 ± 42.5 pmol/L
same,"AUCGIR,0-24h",[4]; [5],"2,415 ± 953 mg/kg"
same,GIRmax,[4]; [5],2.82 ± 1.06 mg/kg/min
same,tGIRmax,[4]; [5],666 ± 202 min
same,"AUCGIR,0-12h",[4]; [5],989 (642) mg/kg
same,GIRmax after correction,[4]; group A,2.96 mg/kg/min
same,"AUCGIR, 0–24 h after correction",[4]; group A,"2,513 mg/kg"
same,"AUCGIR,0-24h",[4]; [6],"2,891 ± 908 mg/kg"
same,GIRmax,[4]; [6],3.36 ± 1.07 mg/kg/min
same,tGIRmax,[4]; [6],678 ± 180 min
same,"AUCGIR,0-12h",[4]; [6],"1,320 (615) mg/kg"
same,GIRmax after correction,[4]; group B,3.09 mg/kg/min
same,"AUCGIR, 0–24 h after correction",[4]; group B,"2,697 mg/kg"
